Data as given in patent US8426358B2, “Methods for treating atherosclerosis” (Amgen Inc., priority 2006, dated 2013).
Numbering of substitutions follows the chain as printed.

How the values were obtained:
LCAT = test: Plasma LCAT activity assay in LCAT-deficient (lcat -/-) plasma samples; assay type: biochemical; conditions: lcat -/- mutant mouse plasma, in the presence or absence of compound
Description: Activity of the modified LCAT of the invention and activities of compounds of the invention were determined by measuring change of the rate of conversion of ^3H-labeled cholesterol to cholesteryl ester (CE). In the plasma LCAT activity assay, human plasma samples were equilibrated with a trace amount of radiolabeled cholesterol at 4° C. and the rate of cholesterol esterification was measured by TLC analysis after incubation at 37° C. (Dobiasova, supra). EC50 represents a compound concentration achieving 50% of maximal activation of LCAT-mediated cholesterol esterification. Results presented in FIG. 2(A) confirm activity and specificity of the compounds of the invention on LCAT enzyme. This experiment studied the effect of Compound A in LCAT-deficient plasma samples obtained from lcat mutant mice. Ng et al. (1997) J. Biol. Chem. 272:1 5777-81.

[1] = Plasma HDL cholesterol in CD1 mice after IP dosing; assay type: in vivo; conditions: IP 20 mg/kg, one dose per day, 4 days, FIG. 4
Description: (§1) Rodents used for assessing the in vivo effects of the compounds of the invention include BALB/c mice, CD1 mice, and Syrian hamsters of wild type fed with normal chew. These animals were treated with either vehicle or Compound A (3-(5-ethylthio)-1,3,4-thiadiazol-2-ylthio)pyrazine-2-carbonitrile) by IP injection. At time points (see Figures) after compound administration, blood samples were collected, plasma was immediately separated, and plasma levels of lipids, lipoprotein and LCAT activity were determined.
CD1 male three month old mice were treated with either vehicle (control) or with Compound A by IP injection (20 mg/kg, one dose per day, 4 days, n=8). Plasma samples were collected and HDL cholesterol concentrations were determined standard reagents and assay protocol using clinical analyzer (Infinity).

[2] = FPLC elution profiles of pooled hamster plasma (cholesterol, triglyceride); assay type: in vivo; conditions: hamsters, IP 20 mg/kg/day, 4 days, FIG. 7
Description: Hamsters (n=6) were treated with either vehicle (control), or Compound A via IP administration (20 mg/kg/day, 4 days). Plasma samples were pooled within each treatment group, and separated by FPLC using two serially connected Superose 6 columns (Pharmacia Biotech Inc.). Cholesterol (panel A) and triglyceride (panel B) levels were determined in 0.5 ml fractions.

[3] = Plasma TC, HDL and LpB cholesterol in Syrian hamsters after IP dosing; assay type: in vivo; conditions: IP 20 mg/kg, one dose per day, 4 days, FIG. 6
Description: as §1
Hamsters (Syrian, male, 12 weeks old, n=6 per group) were treated with either vehicle (control) or Compound A via IP administration (20 mg/kg, one dose per day, 4 days). Plasma samples were collected and concentrations of total cholesterol (TC), panel B, and HDL cholesterol (panel A) were measured. LpB cholesterol contents were obtained by subtracting HDL from TC (panel C).

LCAT mutant H377A = biological target: T1, LCAT mutant H377A (Homo sapiens, UniProt P04180, H401A); test: Activity of loss-of-function LCAT mutant H377A with or without compound; assay type: biochemical; conditions: nonfunctional enzyme
T1 construct: full-length human LCAT cDNA was isolated from normal human liver cDNA library; FLAG (C); His (C); made in house; host or cells: CHO cells, secreted into serum-free medium
T1 sequence (P04180 25-440 H401A): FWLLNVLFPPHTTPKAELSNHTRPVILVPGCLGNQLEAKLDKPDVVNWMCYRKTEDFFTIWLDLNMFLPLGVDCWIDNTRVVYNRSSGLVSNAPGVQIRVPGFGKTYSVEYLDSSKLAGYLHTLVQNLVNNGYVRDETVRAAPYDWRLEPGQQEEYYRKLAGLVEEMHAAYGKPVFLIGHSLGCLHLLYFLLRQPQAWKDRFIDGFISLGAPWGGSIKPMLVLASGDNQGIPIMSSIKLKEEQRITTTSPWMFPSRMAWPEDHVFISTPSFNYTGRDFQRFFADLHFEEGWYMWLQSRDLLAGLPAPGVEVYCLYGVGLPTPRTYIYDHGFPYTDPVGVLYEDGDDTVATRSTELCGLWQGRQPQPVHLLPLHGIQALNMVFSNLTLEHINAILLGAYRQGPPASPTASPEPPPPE
Text: (§2) For measuring compound activity using apoAI-liposome assay format, full-length human LCAT cDNA was isolated from normal human liver cDNA library (BioChain, Hayward, Calif.) with standard protocol and cloned into a pCMV-Flag vector (See Example 18). Recombinant LCAT was expressed in CHO cells and the enzyme secreted from stably transfected cells was harvested in serum-free culture medium. Recombinant LCAT identity was confirmed with anti-human LCAT and anti-Flag antibodies. The activity of recombinant LCAT enzyme was determined using apoAI-liposome substrates prepared by the standard cholate-dialysis procedure (Chen et al. (1982) J. Lipid Res. 23: 680-691. The initial mixture contained egg PC/^3H-unesterfied cholesterol/human apoAI (molar ratio of 250:12.5:0.8). After dialysis the proteoliposomes were incorporated with recombinant LCAT protein. LCAT activity was determined by measuring the conversion of radiolabeled cholesterol to cholesteryl ester and expressed in nmol CE/mL per hour.
(§3) Results summarized in FIG. 2(B) illustrate the mechanism of action of compounds of the invention on LCAT enzyme. Two loss-of-function LCAT mutants, H377A and S181A were generated, in which the critical catalytic triad of the enzyme was destroyed as described in Francone et al. (1991) Biochemistry 30: 10074-77; Peelman et al. (1998) Protein Sci. 7: 587-599; and Peelman et al. (2000) Curr. Opin. Lipidol. […]

LCAT C184A mutant = biological target: T2, LCAT C184A mutant (Homo sapiens, UniProt P04180, C208A); test: Activation of recombinant LCAT C184A mutant; assay type: biochemical; conditions: recombinant protein
T2 construct: full-length human LCAT cDNA was isolated from normal human liver cDNA library; FLAG (C); His (C); made in house; host or cells: CHO cells, secreted into serum-free medium
T2 sequence (P04180 25-440 C208A): T1 sequence (P04180 25-440 H401A) with C184A, A377H
Text: as §2, §3

LCAT mutant S181A = biological target: T3, LCAT mutant S181A (Homo sapiens, UniProt P04180, S205A); test: Activity of loss-of-function LCAT mutant S181A with or without compound; assay type: biochemical; conditions: nonfunctional enzyme
T3 construct: full-length human LCAT cDNA was isolated from normal human liver cDNA library; FLAG (C); His (C); made in house; host or cells: CHO cells, secreted into serum-free medium
T3 sequence (P04180 25-440 S205A): T1 sequence (P04180 25-440 H401A) with S181A, A377H
Text: as §2, §3

LCAT C31A mutant = biological target: T4, LCAT C31A mutant (Homo sapiens, UniProt P04180, C55A); test: Activation of recombinant LCAT C31A mutant; assay type: biochemical; conditions: recombinant protein
T4 construct: full-length human LCAT cDNA was isolated from normal human liver cDNA library; FLAG (C); His (C); made in house; host or cells: CHO cells, secreted into serum-free medium
T4 sequence (P04180 25-440 C55A): T1 sequence (P04180 25-440 H401A) with C31A, A377H
Text: as §2, §3

LCAT enzyme = biological target: T5, LCAT enzyme (Mus musculus, UniProt P16301); test: Plasma LCAT activity after IP dosing of BALB/c mice; assay type: in vivo; conditions: male, DEPG vehicle, FIG. 3
T5 construct: from tissue; host or cells: plasma of BALB/c mice dosed IP
T5 sequence (P16301 25-438): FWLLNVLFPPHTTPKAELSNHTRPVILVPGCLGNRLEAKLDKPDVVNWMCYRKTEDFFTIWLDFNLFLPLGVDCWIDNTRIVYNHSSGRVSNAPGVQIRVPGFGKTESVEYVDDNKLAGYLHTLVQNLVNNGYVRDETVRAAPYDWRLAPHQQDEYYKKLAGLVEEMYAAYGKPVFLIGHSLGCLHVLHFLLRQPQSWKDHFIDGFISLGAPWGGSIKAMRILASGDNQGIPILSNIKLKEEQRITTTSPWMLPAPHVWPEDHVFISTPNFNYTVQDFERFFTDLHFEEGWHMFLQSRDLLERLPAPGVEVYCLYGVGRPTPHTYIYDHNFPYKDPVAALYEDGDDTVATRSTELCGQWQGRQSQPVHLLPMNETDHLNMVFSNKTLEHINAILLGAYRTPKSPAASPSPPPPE
Description: Activity of the modified LCAT of the invention and activities of compounds of the invention were determined by measuring change of the rate of conversion of ^3H-labeled cholesterol to cholesteryl ester (CE). In the plasma LCAT activity assay, human plasma samples were equilibrated with a trace amount of radiolabeled cholesterol at 4° C. and the rate of cholesterol esterification was measured by TLC analysis after incubation at 37° C. (Dobiasova, supra). EC50 represents a compound concentration achieving 50% of maximal activation of LCAT-mediated cholesterol esterification.
as §1
Briefly, BALB/c mice (male, 7 weeks old) were treated with either vehicle or Compound A by intra-peritoneal (IP) in the indicated doses. Animals were fed normal chow diet. […]

[4] = HDL particle size profiles by Gradient Gel Electrophoresis (GGE) of pooled hamster plasma; assay type: in vivo; conditions: hamsters, 20 mg/kg/day, 4 days
Description: Hamsters were treated with either vehicle or Compound A as described above (20 mg/kg/day, 4 days, n=6). Plasma samples were collected and pooled for each group. An aliquot of pooled plasma was analyzed using GGE as described in Blanche et al. (1981) BBA 665: 408-419.

## CCSc1nnc(Sc2nccnc2C#N)s1 [Compound A]
LCAT
  LCAT activity in LCAT-deficient plasma: No LCAT activity was detected
[1]
  HDL cholesterol levels: increases HDL cholesterol levels
[2]
  HDL particle size (FPLC): increases HDL particle size
  HDL-Ch levels (FPLC): increases HDL-Ch levels
  TG levels in the VLDL fraction (FPLC): decrease TG levels in the VLDL fraction
[3]
  HDL levels: increases HDL levels
  apoB-containing lipoprotein (LpB cholesterol = TC minus HDL): decreases apoB-containing lipoprotein
LCAT mutant H377A
  LCAT activity of H377A mutant: No activity was observed
LCAT C184A mutant
  Response of C184A mutant to compound (LCAT activation): able to respond to the treatment in a dose dependent manner comparable to that of the wild type enzyme
LCAT mutant S181A
  LCAT activity of S181A mutant: No activity was observed
LCAT C31A mutant
  Response of C31A mutant to compound (LCAT activation): failed to be activated
LCAT enzyme
  Plasma LCAT enzyme activity: increase LCAT enzyme activity in a dose dependent manner
[4]
  HDL particle size (GGE): increase of HDL particle size
[4]; GGE
  HDL particle size profile, HDL subclass 2a: 39
  HDL particle size profile, HDL subclass 2b: 56
  HDL particle size profile, HDL subclass 3a: 3
  HDL particle size profile, HDL subclass 3b: 1
  HDL particle size profile, HDL subclass 3c: 1
